Structures are written as SMILES. “Also recorded” adds a separate entry of the source. Structures can show the parent of a compound that is named as a salt.

The values below come from patent US9757378B2, “Methods to modulate acute myeloid leukemia stem/progenitor cell expansion and/or differentiation” (UNIVERSITE DE MONTREAL, priority 2013, dated 2017).

Series [1] has as its system primary human AML cells. As to the kind of experiment: Secondary screen: dose response, five serial dilutions (CD34/CD15 flow cytometry). The format is cell-based. Set-up: key to 2ndary screen criteria fulfilled: 0 = no; 1 = yes. The conditions noted are these: for 2ndary screen criteria fulfilled: ≧50% increase CD34+CD15− (%) and cell counts and ≧50% gated cells in at least one dose. (In general: Flow cytometry measures light scatter and fluorescence of single cells or particles in a stream.)
Method: In the primary screen cells were plated in transparent 384-wellplates (Greiner, 781182) at a density of 5,000 cells in 50 μl final volume per well. Compounds were tested at 2 μM (commercial libraries) or 1 μg/ml (Medicinal Chemistry Facility, IRIC). […] For validation experiments AML cells were grown in 384-well plates with 3-8 replicates per condition.
Flow cytometry was performed on an LSR™ II cytometer equipped with an HTS-device (BD Bioscience, Primary and Secondary screens and in vitro validation experiments) or on a BD Canto™ II cytometer (BD Bioscience, Xenotransplantation and CellTrace Violet™ experiments). Cells were stained for 30 minutes at 4° C. protected from light if not otherwise indicated (CellTrace Violet™ staining). The following flow cytometry-antibodies were used: CD45 Pacific Blue (BioLegend 304029), CD33 PE (BD Bioscience 555450), CD34 APC (BD Bioscience 555824), CD3 FITC (BD Bioscience 555332), CD19 PE-Cy7 (BD Bioscience 557835), CD15 PE (BD Bioscience 555401), and anti-mouse CD45.1 APC-efluor 730 (eBioscience 47-0453-82). CD34 intensities in flow cytometry plots were set at high levels on day 0 to allow tracing of non-predictable decreases of intensities during 7 days in culture.

For series [2], the system named is primary human AML specimens. In words: Validation: 7-day serum-free culture of diverse AML specimens (CD34+CD15− cells). The format is cell-based. Particulars: 7-day culture; for impact on CD34+CD15− cell numbers: vs DMSO, P<0.0001 paired t-test; for median CD34+CD15− percentage relative to uncultured cells: SR1 0.75-1 μM, C05 2 μM, DMSO 19% / 22%. The method, then: The following flow cytometry-antibodies were used: […] Statistical analyses of all in vitro experiments were done using Graphpad Prism v 6.01. […] Normalized CD34^+CD15^- percentages (td7/t0) were analyzed by Wilcoxon matched pairs signed rank test. Bars and error bars represent means and standard deviations (SD), or standard errors of the mean (SEM), as specified. Extreme limiting dilution analysis software (Hu, […]: extreme limiting dilution analysis for comparing depleted and enriched populations in stem cell and other assays. Journal of immunological methods 347, 70-78 (2009); http://bioinf.wehi.edu.au/software/elda/) was used to estimate LSC frequencies with 95% confidence intervals. In cases where all mice were positive or negative, one-sided confidence intervals were calculated. Differences in LSC frequencies between culture conditions were analyzed by Chi-square test.

In series [3] the test system is primary human AML cells. As to the kind of experiment: Primary screen: differentiation of primary human AML cells in vitro (CD34/CD15, HTS flow cytometry). Particulars: for percent gated cells (viability): 2 μM (commercial libraries) or 1 μg/ml (IRIC); for % increase CD34+ (%) / % increase CD34+ (cell counts) / % increase CD34+CD15− (cell counts): compared to DMSO; for % increase CD34+CD15− (%): compared to DMSO ((compound − DMSO)/DMSO*100).
Method: AML cells were thawed in 37° C. water bath and 1:10 diluted in prewarmed Iscove's modified Dulbecco's medium (IMDM) containing 20% FBS and DNase 100 μg/ml. […] When compounds were added to the culture medium, final DMSO concentrations were 0.1% in all in vitro experiments and 0.01% when cultured cells were transplanted into NSG-mice.
Compounds were tested at 2 μM (commercial libraries) or 1 μg/ml (Medicinal Chemistry Facility, IRIC). […] For validation experiments AML cells were grown in 384-well plates with 3-8 replicates per condition.
Flow cytometry was performed on an LSR™ II cytometer equipped with an HTS-device (BD Bioscience, Primary and Secondary screens and in vitro validation experiments) or on a BD Canto™ II cytometer (BD Bioscience, Xenotransplantation and CellTrace Violet™ experiments). Cells were stained for 30 minutes at 4° C. protected from light if not otherwise indicated (CellTrace Violet™ staining). […] CD34 intensities in flow cytometry plots were set at high levels on day 0 to allow tracing of non-predictable decreases of intensities during 7 days in culture.

Series [4] concerns AhR target genes CYP1A1, CYP1B1 and AHRR. In words: AhR target gene expression by q-RT-PCR in AML cells. The format is cell-based, human. The conditions noted are these: SR1 500 nM; TCDD 0.1, 1, 10 nM; n=13 samples. From the text: RNA was isolated from primary AML samples using Trizol® reagent according to the manufacturer's instructions (Invitrogen/Life Technologies) and reverse transcribed into cDNA using MMLV reverse transcriptase and random primers. 2× Fast Master Mix® containing primers described below and probes from the Universal Probe Library® (Roche Diagnostics) were used for q-RT-PCR reactions which were amplified in 2-3 technical replicates on an ABI 7900HT Fast Real-Time® PCR System (Applied Biosystems/Life Technologies). Analysis was done with SDS 2.2.2 software (Applied Biosystems/Life Technologies) using the comparative delta CT method with GAPDH as reference gene. The following primers and probes were used: GAPDH: 5′-[…]-3′ (forward, SEQ ID NO:7), 5′-[…]-3′ (reverse, SEQ ID NO:8), probe 60, CYP1A1: 5′-[…]-3′ (forward, SEQ ID NO:9), 5′-[…]-3′ (reverse, SEQ ID NO:10), probe 59, CYP1B1: 5′-[…]-3′ (forward, SEQ ID NO:11), 5′-[…]-3′ (reverse, SEQ ID NO:12), probe 20, AHRR: 5′-[…]-3′ (forward, SEQ ID NO:13), 5′-[…]-3′ (reverse, SEQ ID NO:14), probe 72, AHR: 5′-[…]-3′ (forward, SEQ ID NO:15), 5′-[…]-3′ (reverse, SEQ ID NO:16), probe 33.

In series [5] the target is T1, human AHR (Homo sapiens, UniProt P35869).
T1 sequence (P35869 11-848): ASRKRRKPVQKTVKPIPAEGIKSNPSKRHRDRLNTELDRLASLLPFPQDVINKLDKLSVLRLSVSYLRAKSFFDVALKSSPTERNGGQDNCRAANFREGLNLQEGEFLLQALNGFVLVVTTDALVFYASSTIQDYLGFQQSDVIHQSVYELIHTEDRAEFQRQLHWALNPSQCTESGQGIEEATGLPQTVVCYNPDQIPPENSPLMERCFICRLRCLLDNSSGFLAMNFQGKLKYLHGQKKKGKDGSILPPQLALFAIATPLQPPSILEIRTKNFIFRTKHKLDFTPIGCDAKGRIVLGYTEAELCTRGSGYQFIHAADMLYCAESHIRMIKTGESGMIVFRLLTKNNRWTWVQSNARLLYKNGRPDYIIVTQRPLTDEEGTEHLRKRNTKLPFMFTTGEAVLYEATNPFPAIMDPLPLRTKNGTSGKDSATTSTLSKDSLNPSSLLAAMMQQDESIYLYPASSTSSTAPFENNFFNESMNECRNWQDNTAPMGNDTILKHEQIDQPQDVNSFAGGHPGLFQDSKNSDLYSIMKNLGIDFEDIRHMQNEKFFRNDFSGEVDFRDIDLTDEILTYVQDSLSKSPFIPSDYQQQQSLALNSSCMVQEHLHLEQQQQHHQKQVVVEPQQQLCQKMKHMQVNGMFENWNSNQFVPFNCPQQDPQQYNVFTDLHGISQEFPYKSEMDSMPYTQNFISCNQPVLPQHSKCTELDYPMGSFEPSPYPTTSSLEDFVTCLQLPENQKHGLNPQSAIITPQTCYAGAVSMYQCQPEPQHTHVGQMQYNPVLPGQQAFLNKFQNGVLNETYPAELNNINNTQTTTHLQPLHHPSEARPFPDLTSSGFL
Particulars: Mezrich et al. 2012; cited from earlier work.

Series [6] relates to AML cells (04H112). In words: Cell proliferation assay (CellTrace Violet). The format is cell-based, human. The conditions noted are these: 4-day culture; SR1 500 nM, UM729 1 μM. As to the method:
CellTrace™ Violet (Invitrogen/Life Technologies C34557) was added at a final concentration of 3 μM to cell suspensions (10^7 cells/ml) containing SR1 (500 nM), UM729 (1 μM), both compounds, or vehicle DMSO (0.1%). CellTrace™ Violet labeled cells were stained with surface antibodies against human CD3, CD19, CD34, and CD33 on day 0, day 2, and day 4 prior to analysis on a BD Canto™ II flow cytometer. Data were analyzed using FlowJo™ version 7.6.5.

The test system of series [7] is leukemia stem cells (LSC) of primary human AML samples. As to the kind of experiment: Xenotransplantation of 4-day cultured AML cells into NSG mice (engraftment, LSC frequency). The format is in vivo. From the text:
NOD.Cg-Prkdc^scid II2rg^tm1Wjl/SzJ (NSG) mice were purchased from Jackson Laboratory® (Bar Harbor, Me.) and bred in a pathogen-free animal facility. All AML samples were transplanted via the tail vein into 8-12 week old sublethally irradiated (250 cGy, ^137Cs-gamma source) NSG mice. […] On day 4, equivalents of the three highest to cell doses from each of the 3-4 flasks per condition were transplanted. The technician injecting fresh and cultured cells in NSG mice was not informed about the experimental conditions. […] On average 150,000 gated events were acquired. Mice were considered positive if human cells represented >1% of the bone marrow cell population. Mice were excluded only in case of obvious non-leukemia related death (e.g. first two weeks after irradiation). To discriminate between engraftment of leukemic and normal cells present in unsorted patient samples only recipients with proportions of CD45^+CD33^+ or CD45^+CD34^+ cells higher than proportions of CD19^+CD33^- or CD3^+ were considered to harbor cells of leukemic origin. Statistical analyses of all in vitro experiments were done using Graphpad Prism v 6.01. […] Normalized CD34^+CD15^- percentages (td7/t0) were analyzed by Wilcoxon matched pairs signed rank test. Bars and error bars represent means and standard deviations (SD), or standard errors of the mean (SEM), as specified. Extreme limiting dilution analysis software (Hu, […]: extreme limiting dilution analysis for comparing depleted and enriched populations in stem cell and other assays. Journal of immunological methods 347, 70-78 (2009); http://bioinf.wehi.edu.au/software/elda/) was used to estimate LSC frequencies with 95% confidence intervals. In cases where all mice were positive or negative, one-sided confidence intervals were calculated. Differences in LSC frequencies between culture conditions were analyzed by Chi-square test.

The mark [8] stands for this setting: at optimal concentration, compared to DMSO.

Turning to `CNC(=O)c1cc2c(cn1)[nH]c1ccccc12` [UM0119840, N-Methyl-beta-carboline-3-carboxamide], in series [1] (setting [8]), the “% increase CD34+CD15− (%) 2ndary screen” value came out at 172.95% and the “% increase CD34+CD15− (cell counts) 2ndary screen” value was determined as 252.10%. The “CD34+CD15− cell counts in secondary screenings (ranking)” value in series [1] (in words) is recorded as “highest”. For the same compound, the “2ndary screen criteria fulfilled” value in series [1] came to 1. Besides, in series [2], the “impact on CD34+CD15− cell numbers” value was “significant impact” and the “median CD34+CD15− percentage relative to uncultured cells” value is listed as 56%. Further, in series [3], the “percent gated cells (viability)” value is 86.20%, the “% increase CD34+ (%)” value amounted to 31.60%, the “% increase CD34+ (cell counts)” value is reported as 37.57% and the “% increase CD34+CD15− (cell counts)” value is listed as 85.11%. Further, the “% increase CD34+CD15− (%)” value in series [3] was 76.94%.

Regarding `Clc1cc2c(cc1Cl)Oc1cc(Cl)c(Cl)cc1O2` [TCDD, 2,3,7,8-Tetrachlorodibenzodioxin], the “upregulation of AhR target genes AHRR and CYP1A1 upon 24 h in vitro culture” value in series [4] is reported as “marginally further induced”.

On to `Cc1cc(C)c(/C=C2\C(=O)Nc3ccccc32)[nH]1` [SU5416, 3-(3,5-dimethyl-1H-pyrrol-2-ylmethylene)-1,3-dihydro-indole-2-one], for which the “activation of the human AHR” value in series [5] is on record as “potency approaching TCDD”.

Turning to `CO[C@H]1C[C@@H]2CC[C@@H](C)[C@@](O)(O2)C(=O)C(=O)N2CCCC[C@H]2C(=O)O[C@H]([C@H](C)C[C@@H]2CC[C@@H](O)[C@H](OC)C2)CC(=O)[C@H](C)/C=C(\C)[C@@H](O)[C@@H](OC)C(=O)[C@H](C)C[C@H](C)/C=C/C=C/C=C/1C` [UM0119219, Rapamycin], in series [1], the “2ndary screen criteria fulfilled” value was determined as 0. Moreover, in series [3], the “percent gated cells (viability)” value was determined as 72.30%, the “% increase CD34+ (%)” value stood at 27.40%, the “% increase CD34+ (cell counts)” value is listed as −57.86% and the “% increase CD34+CD15− (cell counts)” value is −44.01%. Besides, the “% increase CD34+CD15− (%)” value in series [3] amounted to 68.93%.

Regarding `N[C@@H]1C[C@H]1c1ccccc1` [UM0118428, Tranylcypromine hydrochloride], the “2ndary screen criteria fulfilled” value in series [1] is recorded as 0. Besides, in series [3], the “percent gated cells (viability)” value worked out at 77.80%, the “% increase CD34+ (%)” value was determined as 49.50%, the “% increase CD34+ (cell counts)” value is −11.95% and the “% increase CD34+CD15− (cell counts)” value is listed as −10.11%. For the same compound, in series [3], the “% increase CD34+CD15− (%)” value turned out to be 52.70%.

`CC(C)n1cnc2c(NCCc3ccc(O)cc3)nc(-c3csc4ccccc34)nc21` [SR1, StemRegenin 1]: the “upregulation of AhR target genes AHRR and CYP1A1 upon 24 h in vitro culture” value in series [4] was “effectively antagonized”. In addition, the “distribution of cell generations / number of early cell divisions” value in series [6] is given as “no difference”. In series [7] (cultures before transplantation, DMSO 6.2±3×10^6), the “total viable cells per flask (median±SD) following 4-day culture” value is recorded as 4.8±2×10^6. Besides, the “engraftment (average)” value in series [7] (sample 05H163, progeny of 2×10^6 input cells, SR1-supplemented culture) stood at 50%. In addition, the “supporting LSC functional activity, SR1 alone versus UM729 alone” value in series [7] (six samples, engraftment in NSG mice) is on record as “superior to UM729 in supporting LSC functional activity in four of six samples; also recorded: equally efficacious in two samples”. In series [7] (six samples, 4-day culture with SR1 0.5-1 μM, NSG mice), the “engraftment levels compared to control DMSO” value was “higher engraftment levels”. Moreover, the “samples with net expansion of CD34+CD15− cells” value in series [2] (compared to input) was 15/16. The “increase in CD34+CD15− cell numbers” value in series [2] (maximum (AML 08H112)) is listed as “up to 42 fold”. Moreover, in series [2], the “impact on CD34+CD15− cell numbers” value is “significant impact” and the “median CD34+CD15− percentage relative to uncultured cells” value stood at 72%. Further, the “preventing AML cell differentiation in vitro, compound alone” value in series [2] (17 AML specimens, UM729 1 μM) was “superior to UM729”.

Turning to `C[C@]12CC[C@H](O)C[C@H]1CC[C@@H]1[C@@H]2CC[C@]2(C)[C@@H](C3=CC(=O)OC3)[C@@H](O)C[C@]12O` [UM0119342, Gitoxigenin], the “2ndary screen criteria fulfilled” value in series [1] was 0. Moreover, in series [3], the “percent gated cells (viability)” value was 77.10%, the “% increase CD34+ (%)” value is 48.71%, the “% increase CD34+ (cell counts)” value is recorded as −44.85% and the “% increase CD34+CD15− (cell counts)” value is −40.00%. In addition, in series [3], the “% increase CD34+CD15− (%)” value is 62.33%.
